Test results taken from the NIST ThermoML archive (doi:10.1007/s10765-016-2061-1).

Details: Liquid, Vibrating tube method

CCF [fluoroethane]
Details | mass density [kg/m3]
283.5 K, 49990 kPa | 805.67
283.5 K, 60000 kPa | 816.48
283.5 K, 69990 kPa | 826.06
283.5 K, 79970 kPa | 834.87
283.5 K, 90040 kPa | 843.3
283.51 K, 10000 kPa | 747.35
283.51 K, 15000 kPa | 756.91
283.51 K, 20000 kPa | 765.51
283.51 K, 25000 kPa | 773.62
283.51 K, 30000 kPa | 780.86
283.51 K, 40000 kPa | 794.13
283.51 K, 100000 kPa | 851.08
283.52 K, 1000 kPa | 727.11
283.52 K, 3000 kPa | 731.96
283.52 K, 4990 kPa | 736.6
293.2 K, 1010 kPa | 706.97
293.2 K, 3010 kPa | 712.87
293.21 K, 5010 kPa | 718.27
293.21 K, 10010 kPa | 730.51
293.21 K, 15010 kPa | 741.15
293.21 K, 20000 kPa | 750.65
293.21 K, 25010 kPa | 759.29
293.21 K, 30010 kPa | 767.25
293.21 K, 70000 kPa | 815.59
293.21 K, 80000 kPa | 825
293.22 K, 40010 kPa | 781.39
293.22 K, 50000 kPa | 793.87
293.22 K, 60000 kPa | 805.15
293.22 K, 90000 kPa | 833.51
293.22 K, 99990 kPa | 841.66
303.23 K, 3010 kPa | 692.69
303.23 K, 5010 kPa | 699.12
303.23 K, 10000 kPa | 713.26
303.23 K, 15000 kPa | 725.31
303.23 K, 20010 kPa | 735.85
303.23 K, 30000 kPa | 753.95
303.24 K, 25010 kPa | 745.33
303.24 K, 40010 kPa | 769.21
303.24 K, 50000 kPa | 782.6
303.24 K, 60000 kPa | 794.39
303.24 K, 70000 kPa | 805.57
303.24 K, 80000 kPa | 815.36
303.25 K, 90000 kPa | 824.43
303.25 K, 100000 kPa | 832.9
313.14 K, 3000 kPa | 669.48
313.14 K, 5000 kPa | 677.22
313.14 K, 10000 kPa | 694
313.14 K, 15000 kPa | 707.5
313.15 K, 20000 kPa | 719.54
313.15 K, 25000 kPa | 729.96
313.15 K, 30010 kPa | 739.29
313.15 K, 40000 kPa | 755.43
313.15 K, 50000 kPa | 770.06
313.15 K, 60000 kPa | 782.28
313.15 K, 70000 kPa | 794.18
313.15 K, 80000 kPa | 804.63
313.16 K, 90000 kPa | 814.08
313.16 K, 100000 kPa | 822.46
323 K, 3000 kPa | 644.53
323 K, 5000 kPa | 654.18
323 K, 10000 kPa | 673.87
323 K, 15000 kPa | 689.57
323 K, 20000 kPa | 702.96
323 K, 25000 kPa | 714.54
323 K, 90000 kPa | 804.1
323.01 K, 30000 kPa | 724.71
323.01 K, 40000 kPa | 742.42
323.01 K, 50000 kPa | 757.67
323.01 K, 60000 kPa | 770.9
323.01 K, 69990 kPa | 783.33
323.01 K, 80000 kPa | 794.16
323.01 K, 100000 kPa | 813.21
332.98 K, 3000 kPa | 616.38
332.98 K, 5000 kPa | 628.96
332.98 K, 10010 kPa | 653.01
332.98 K, 50000 kPa | 745.52
332.98 K, 60000 kPa | 759.62
332.99 K, 15000 kPa | 671.15
332.99 K, 20010 kPa | 686.12
332.99 K, 25000 kPa | 698.88
332.99 K, 29990 kPa | 710.09
332.99 K, 39990 kPa | 729.27
332.99 K, 69990 kPa | 772.51
332.99 K, 80010 kPa | 783.85
332.99 K, 90000 kPa | 794.07
332.99 K, 100000 kPa | 803.45
342.85 K, 3000 kPa | 582.54
342.85 K, 5000 kPa | 600.31
342.85 K, 10000 kPa | 630.51
342.85 K, 15000 kPa | 651.87
342.85 K, 20000 kPa | 668.76
342.85 K, 25000 kPa | 682.96
342.85 K, 30000 kPa | 695.28
342.85 K, 40000 kPa | 716.03
342.85 K, 60000 kPa | 748.38
342.86 K, 50010 kPa | 733.53
342.86 K, 70000 kPa | 762.03
342.86 K, 79990 kPa | 773.74
342.86 K, 90010 kPa | 784.53
342.87 K, 100000 kPa | 794.42
352.86 K, 5000 kPa | 566.12
352.86 K, 10000 kPa | 606.19
352.86 K, 15000 kPa | 631.59
352.86 K, 19990 kPa | 650.88
352.86 K, 25000 kPa | 666.7
352.86 K, 29990 kPa | 680.18
352.86 K, 39990 kPa | 702.62
352.86 K, 50000 kPa | 721.07
352.86 K, 59990 kPa | 736.86
352.86 K, 70000 kPa | 751.19
352.86 K, 79990 kPa | 763.56
352.86 K, 90000 kPa | 774.75
352.87 K, 99990 kPa | 785.11
362.79 K, 4990 kPa | 521.7
362.79 K, 10000 kPa | 579.49
362.8 K, 15000 kPa | 610.29
362.8 K, 19990 kPa | 632.41
362.8 K, 24990 kPa | 650.04
362.8 K, 30000 kPa | 664.91
362.8 K, 40000 kPa | 689.17
362.8 K, 49990 kPa | 708.84
362.81 K, 59990 kPa | 725.55
362.81 K, 70000 kPa | 740.64
362.81 K, 80000 kPa | 753.56
362.81 K, 90000 kPa | 765.31
362.81 K, 99990 kPa | 775.91
